Experimental data taken from patent US5605929A, “Methods and compositions for inhibiting 5α-reductase activity” (priority 1995, dated 1997).

Test system: hamster flank organ
Assay: Flank organ, castrated immature male hamsters, topical treatment
Type: in vivo, Syrian golden hamster
Conditions: Table 5, T 0.5 μg + fatty acid 1 mg
Description: One to two weeks after castration, the hair on the lower back of each animal was clipped with an electric hair clipper and then shaved weekly to expose the flank organs. The animals were divided into 5 animals/treatment group. A treatment solution (5 μl) was applied topically to the right flank organ once a day using a Pipetteman and a polypropylene disposable tip. Unless specified the left flank organ was not treated. The treatment solution contained either (a) ethanol alone (vehicle and control), (b) an androgen (T or 5α-DHT), (c) a fatty acid, or (d) a combination of an androgen and a fatty acid. The flank organ was wiped with an alcohol pad to remove residual compound before each treatment. […] The flank organs, both the treated and untreated sides, were evaluated with methods to be described below to determine the effect of these treatments of the growth of the pigmented macules and the sebaceous glands. The body weight of each animal was recorded before and after treatment.
The data are presented as mean ± standard deviation. […]

SMILES | p (significance of inhibition)
CCCCCCCC/C=C\CCCCCCCCCCCCCC(=O)O [Nervonic acid] | N.S.
CCCCC/C=C/C/C=C/CCCCCCCC(=O)O [Linolelaidic acid] | N.S.
C=CCCCCCCCCC(=O)O [Undecylenic acid] | N.S.
CCCCCCCC/C=C/CCCCCCCC(=O)O [Elaidic acid] | N.S.

Same assay, conditions: Table 5, T 0.5 μg + fatty acid 1 mg, 21 days

SMILES | Percent Inhibition
CCCCCCCC/C=C\CCCCCCCCCCCC(=O)O [Erucic acid] | 29%

Same assay, conditions: Table 5, T 0.5 μg + fatty acid 1 mg, 21 days; T alone 49.6 ± 8.3

SMILES | Pigmented macule Right (+T)
CCCCCCCC/C=C\CCCCCCCCCCCCCC(=O)O [Nervonic acid] | 39.9 ± 5.4 mm^2
CCCCC/C=C/C/C=C/CCCCCCCC(=O)O [Linolelaidic acid] | 46.6 ± 8.7 mm^2
C=CCCCCCCCCC(=O)O [Undecylenic acid] | 41.7 ± 10.7 mm^2
CCCCCCCC/C=C/CCCCCCCC(=O)O [Elaidic acid] | 47.0 ± 5.9 mm^2
CCCCCCCC/C=C\CCCCCCCCCCCC(=O)O [Erucic acid] | 35.4 ± 4.6 mm^2

Same assay, conditions: Table 5, fatty acid 1 mg without T, 21 days

SMILES | Pigmented macule Left
CCCCCCCC/C=C\CCCCCCCCCCCCCC(=O)O [Nervonic acid] | 4.0 ± 1.5 mm^2
CCCCC/C=C/C/C=C/CCCCCCCC(=O)O [Linolelaidic acid] | 4.1 ± 0.7 mm^2
C=CCCCCCCCCC(=O)O [Undecylenic acid] | 4.7 ± 1.2 mm^2
CCCCCCCC/C=C/CCCCCCCC(=O)O [Elaidic acid] | 4.9 ± 1.1 mm^2
CCCCCCCC/C=C\CCCCCCCCCCCC(=O)O [Erucic acid] | 4.6 ± 1.5 mm^2

Same assay, conditions: hamster, in vivo

SMILES | inhibition of T-induced growth of pigmented macule
CCCCCCCC/C=C\CCCCCCCCCCCCCC(=O)O [Nervonic acid] | no significant inhibition
CCCCC/C=C/C/C=C/CCCCCCCC(=O)O [Linolelaidic acid] | inactive
C=CCCCCCCCCC(=O)O [Undecylenic acid] | no significant inhibition
CCCCCCCC/C=C/CCCCCCCC(=O)O [Elaidic acid] | inactive
CCCCCCCC/C=C\CCCCCCCCCCCC(=O)O [Erucic acid] | Weak inhibitions

Biological target: T1, 5α-Reductase of Rat Liver Microsomes (Rattus norvegicus, UniProt P24008)
T1 sequence (P24008 1-259): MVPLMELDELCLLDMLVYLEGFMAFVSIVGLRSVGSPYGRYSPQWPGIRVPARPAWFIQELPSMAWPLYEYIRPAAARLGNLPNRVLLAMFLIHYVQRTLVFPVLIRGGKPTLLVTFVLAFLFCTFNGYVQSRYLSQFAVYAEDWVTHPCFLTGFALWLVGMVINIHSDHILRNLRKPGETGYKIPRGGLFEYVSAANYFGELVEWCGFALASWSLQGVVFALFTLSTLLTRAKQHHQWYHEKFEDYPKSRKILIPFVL
Assay: biochemical
Conditions: not given

SMILES | IC50
CCCCCCCC/C=C\CCCCCCCCCCCCCC(=O)O [Nervonic acid] | > 200 µM
CCCCCCCC/C=C\CCCCCCCCCCCC(=O)O [Erucic acid] | > 200 µM
CC/C=C\C/C=C\C/C=C\C/C=C\C/C=C\C/C=C\CCC(=O)O [Docosahexaenoic acid, cis-4,7,10,13,16,19-docosahexaenoic acid] | 47 µM

Same assay, conditions: 1 h, read-out: stimulation of [^3 H]4-MA binding

SMILES | activation at 200 µM
CC1=C(/C=C/C(C)=C/C=C/C(C)=C\C(=O)O)C(C)(C)CCC1 [13-cis-retinoic acid] | 58%

Same assay, conditions: read-out: % Inhibition of [^3 H]4-MA binding

SMILES | inhibition at 10 µM | inhibition at 40 µM | inhibition at 200 µM | inhibition at 5 µM
C=CCCCCCCCCC(=O)O [Undecylenic acid] | < 10% | < 10% | 13 ± 2% | –
CCCC/C=C\CCCCCCCC(=O)O [Myristoleic acid] | < 10% | 25 ± 4% | 43 ± 1% | < 10%

Same assay, conditions: read-out: % Inhibition of [^3 H]4-MA binding, Table 1, 10 μM

SMILES | inhibition at 10 µM
CCCCCCCC/C=C/CCCCCCCC(=O)O [Elaidic acid] | < 10%
CC/C=C\C/C=C\C/C=C\C/C=C\C/C=C\C/C=C\CCC(=O)O [Docosahexaenoic acid, cis-4,7,10,13,16,19-docosahexaenoic acid] | < 10%

Same assay, conditions: read-out: % Inhibition of [^3 H]4-MA binding, Table 1, 40 μM

SMILES | inhibition at 40 µM
CCCCCCCC/C=C\CCCCCCCCCCCCCC(=O)O [Nervonic acid] | < 10%
CCCCC/C=C/C/C=C/CCCCCCCC(=O)O [Linolelaidic acid] | < 10%
CCCCCCCC/C=C/CCCCCCCC(=O)O [Elaidic acid] | < 10%
CCCCCCCC/C=C\CCCCCCCCCCCC(=O)O [Erucic acid] | < 10%
CC/C=C\C/C=C\C/C=C\C/C=C\C/C=C\C/C=C\CCC(=O)O [Docosahexaenoic acid, cis-4,7,10,13,16,19-docosahexaenoic acid] | 27 ± 1%

Same assay, conditions: read-out: % Inhibition of [^3 H]4-MA binding, Table 1, 200 μM

SMILES | inhibition at 200 µM
CCCCCCCC/C=C\CCCCCCCCCCCCCC(=O)O [Nervonic acid] | < 10%
CCCCC/C=C/C/C=C/CCCCCCCC(=O)O [Linolelaidic acid] | 19 ± 5%
CCCCCCCC/C=C/CCCCCCCC(=O)O [Elaidic acid] | < 10%
CCCCCCCC/C=C\CCCCCCCCCCCC(=O)O [Erucic acid] | < 10%
CC/C=C\C/C=C\C/C=C\C/C=C\C/C=C\C/C=C\CCC(=O)O [Docosahexaenoic acid, cis-4,7,10,13,16,19-docosahexaenoic acid] | 87 ± 6%

Same assay, conditions: read-out: % Inhibition of [^3 H]4-MA binding, Table 2, 5 μM

SMILES | inhibition at 5 µM
CC/C=C\C/C=C\C/C=C\C/C=C\C/C=C\C/C=C\CCC(=O)O [Docosahexaenoic acid, cis-4,7,10,13,16,19-docosahexaenoic acid] | < 10%

Same assay, conditions: read-out: % Inhibition of [^3 H]4-MA binding, Table 2, 10 μM

SMILES | inhibition at 10 µM
CCCCC/C=C/C/C=C/CCCCCCCC(=O)O [Linolelaidic acid] | < 10%
CCCCCCCC/C=C/CCCCCCCC(=O)O [Elaidic acid] | < 10%
CCCCCCCC/C=C\CCCCCCCCCCCC(=O)O [Erucic acid] | < 10%
CC/C=C\C/C=C\C/C=C\C/C=C\C/C=C\C/C=C\CCC(=O)O [Docosahexaenoic acid, cis-4,7,10,13,16,19-docosahexaenoic acid] | 18%

Same assay, conditions: read-out: % Inhibition of [^3 H]4-MA binding, Table 2, 40 μM

SMILES | inhibition at 40 µM
CCCCCCCC/C=C\CCCCCCCCCCCCCC(=O)O [Nervonic acid] | < 10%
CCCCC/C=C/C/C=C/CCCCCCCC(=O)O [Linolelaidic acid] | < 10%
CCCCCCCC/C=C/CCCCCCCC(=O)O [Elaidic acid] | < 10%
CCCCCCCC/C=C\CCCCCCCCCCCC(=O)O [Erucic acid] | < 10%
CC/C=C\C/C=C\C/C=C\C/C=C\C/C=C\C/C=C\CCC(=O)O [Docosahexaenoic acid, cis-4,7,10,13,16,19-docosahexaenoic acid] | 49%

Same assay, conditions: read-out: % Inhibition of [^3 H]4-MA binding, Table 2, 200 μM

SMILES | inhibition at 200 µM
CCCCCCCC/C=C\CCCCCCCCCCCCCC(=O)O [Nervonic acid] | < 10%
CCCCC/C=C/C/C=C/CCCCCCCC(=O)O [Linolelaidic acid] | 19%
CCCCCCCC/C=C/CCCCCCCC(=O)O [Elaidic acid] | < 10%
CCCCCCCC/C=C\CCCCCCCCCCCC(=O)O [Erucic acid] | < 10%
CC/C=C\C/C=C\C/C=C\C/C=C\C/C=C\C/C=C\CCC(=O)O [Docosahexaenoic acid, cis-4,7,10,13,16,19-docosahexaenoic acid] | 86%

Biological target: T1, 5α-Reductase of Rat Liver Microsomes
Assay: not given
Conditions: not given

SMILES | inhibitory activity in [^3 H]4-MA binding assay
CCCCCCCC/C=C\CCCCCCCCCCCCCC(=O)O [Nervonic acid] | inactive
CCCCC/C=C/C/C=C/CCCCCCCC(=O)O [Linolelaidic acid] | much less inhibitory than their cis isomers
C=CCCCCCCCCC(=O)O [Undecylenic acid] | inactive
CCCCCCCC/C=C/CCCCCCCC(=O)O [Elaidic acid] | much less inhibitory than their cis isomers
CCCCCCCC/C=C\CCCCCCCCCCCC(=O)O [Erucic acid] | inactive
CC/C=C\C/C=C\C/C=C\C/C=C\C/C=C\C/C=C\CCC(=O)O [Docosahexaenoic acid, cis-4,7,10,13,16,19-docosahexaenoic acid] | potent inhibitor
CC1=C(/C=C/C(C)=C/C=C/C(C)=C\C(=O)O)C(C)(C)CCC1 [13-cis-retinoic acid] | slightly stimulatory

Same assay, conditions: 40 μM

SMILES | stimulation or inhibition of [^3 H]4-MA binding
CC1=C(/C=C/C(C)=C/C=C/C(C)=C\C(=O)O)C(C)(C)CCC1 [13-cis-retinoic acid] | no stimulation or inhibition

Same assay, conditions: Table 2, 10 μM

SMILES | % Inhibition of [^3 H]4-MA binding
CCCC/C=C\CCCCCCCC(=O)O [Myristoleic acid] | NA (less than 10% inhibition were considered not active (NA))

Same assay, conditions: Table 2, 40 μM

SMILES | % Inhibition of [^3 H]4-MA binding
C=CCCCCCCCCC(=O)O [Undecylenic acid] | NA (less than 10% inhibition were considered not active (NA))

Biological target: T1, 5α-Reductase of Rat Liver Microsomes
Assay: [3H]4-MA binding assay, rat liver microsomes (tea catechins)
Conditions: concentrations up to 200 μM
Description: Microsomes were prepared as described previously (Liang and Liao, 1992) from the liver of adult Sprague-Dawley female rats or Rat-1A cells expressing a specific type of human 5α-reductase. Each study was carried out in duplicate or triplicate which were usually within 10% of each other. Several studies were preformed to assure that the results shown are representative. The data presented was based on the rate of reaction.
[^3 H]4-MA binding assay were described in detail previously (Liang and Liao, 1992; Liang et al., 1983). […] The reaction was started by the addition of 25 μl of microsomes (25 μg protein). After 30-60 min incubation at 0° C., the [^3 H]4-MA bound to microsomes was collected on a Whatman GF/F glass fiber, washed and radioactivity determined (Liang and Liao, 1992).

SMILES | inhibitory activity
O=C(O)c1cc(O)c(O)c(O)c1 [gallic acid, reference compound] | not active

Biological target: T2, microsomal 5α-reductase (Rattus norvegicus, UniProt P24008)
T2 construct: from the livers of adult Sprague-Dawley female rats; from tissue; host or cells: liver microsomes of adult female Sprague-Dawley rats
T2 sequence (P24008 1-259): T1 sequence (P24008 1-259)
Assay: Enzymatic assay of microsomal 5α-reductase (testosterone to 5α-DHT)
Type: biochemical
Conditions: prostate or liver microsomes
Description: Microsomes were prepared at 4° C. from a buffered 0.32M-sucrose homogenate of human liver and from the livers of adult Sprague-Dawley female rats by differential centrifugation as described previously (Liang et al., 1990), and were used in the assay of 5α-reductase activity. In some experiments, microsomes were solubilized with 0.1% polyoxyethylene ether W-1 as described previously (Liang et al., 1990), except for the substitution of polyoxyethylene ether W-1 for Lubrol-WX.

SMILES | inhibition in the enzymatic assay
CCCCC/C=C/C/C=C/CCCCCCCC(=O)O [Linolelaidic acid] | as potent as their cis isomers
CCCCCCCC/C=C/CCCCCCCC(=O)O [Elaidic acid] | as potent as their cis isomers

Test system: 5α-reductase
Assay: Catechin gallates in rat liver microsomes or cells expressing type 1 or type 2 5α-reductase
Type: biochemical
Conditions: 40 μM

SMILES | inhibition
Oc1cc(O)c2c(c1)OC(c1ccc(O)c(O)c1)C(O)C2 (stereo not drawn) [Catechin] | less than 25%

Same assay, conditions: vs catechin gallate

SMILES | inhibitory activity
CCCOC(=O)c1cc(O)c(O)c(O)c1 [n-propyl gallate] | not as active as catechin gallate
Oc1cccc(O)c1O [pyrogallol] | not as active as catechin gallate
CCCCCCCCOC(=O)c1cc(O)c(O)c(O)c1 [n-octyl gallate] | low inhibitory activity
NC(=O)c1cc(O)c(O)c(O)c1 [3,4,5-trihydroxybenzamide] | not as active as catechin gallate
COC(=O)c1cc(O)c(O)c(O)c1 [methyl gallate] | not as active as catechin gallate
O=C(O)c1cc(O)c(O)c(O)c1 [gallic acid, reference compound] | not as active as catechin gallate
